Source: patent US6858618B2, “Use of rosuvastatin (zd-4522) in the treatment of heterozygous familial hypercholesterolemia” (AstraZeneca AB, priority 2000, dated 2005)
Marks after values point to notes of the source that are not given here.

Tests used:
[1] = system: subjects with heterozygous familial hypercholesterolemia; assay: 24-week randomised double-blind Phase III trial of ZD4522 versus atorvastatin: efficacy (lipids, guideline targets, CRP); type: in vivo, human; settings: for mean % reduction in LDL-C / Percentage subjects reaching EAS target for LDL-C levels at Week 18, high-risk / Percentage subjects reaching EAS target for LDL-C levels at Week 18, overall / Percentage subjects reaching NCEP target for LDL-C levels at Week 18, high-risk / Percentage subjects reaching NCEP target for LDL-C levels at Week 18, overall / Percentage change from baseline to Week 18 in inflammatory marker CRP / Lsmean of percentage change from baseline to Week 18 in ApoA-I / Lsmean of percentage change from baseline to Week 18 in ApoB / Lsmean of percentage change from baseline to Week 18 in ApoB/ApoA-I ratio / Lsmean of percentage change from baseline to Week 18 in HDL-C / Lsmean of percentage change from baseline to Week 18 in LDL-C / Lsmean of percentage change from baseline to Week 18 in LDL-C/HDL-C ratio / Lsmean of percentage change from baseline to Week 18 in Non-HDL-C/HDL-C ratio / Lsmean of percentage change from baseline to Week 18 in TC / Lsmean of percentage change from baseline to Week 18 in TC/HDL-C ratio / Lsmean of percentage change from baseline to Week 18 in TG: HeFH subjects; for mean % reduction in LDL-C / Percentage subjects reaching EAS target for LDL-C levels at Week 18, high-risk / Percentage subjects reaching EAS target for LDL-C levels at Week 18, overall / Percentage subjects reaching NCEP target for LDL-C levels at Week 18, high-risk / Percentage subjects reaching NCEP target for LDL-C levels at Week 18, overall / Percentage change from baseline to Week 18 in inflammatory marker CRP: 20/40/80 mg; for mean % reduction in LDL-C: primary efficacy analysis; for Percentage subjects reaching EAS target for LDL-C levels at Week 18, high-risk / Percentage subjects reaching EAS target for LDL-C levels at Week 18, overall / Percentage subjects reaching NCEP target for LDL-C levels at Week 18, high-risk / Percentage subjects reaching NCEP target for LDL-C levels at Week 18, overall / Lsmean of percentage change from baseline to Week 18 in ApoA-I / Lsmean of percentage change from baseline to Week 18 in ApoB / Lsmean of percentage change from baseline to Week 18 in ApoB/ApoA-I ratio / Lsmean of percentage change from baseline to Week 18 in HDL-C / Lsmean of percentage change from baseline to Week 18 in LDL-C / Lsmean of percentage change from baseline to Week 18 in LDL-C/HDL-C ratio / Lsmean of percentage change from baseline to Week 18 in Non-HDL-C/HDL-C ratio / Lsmean of percentage change from baseline to Week 18 in TC / Lsmean of percentage change from baseline to Week 18 in TC/HDL-C ratio / Lsmean of percentage change from baseline to Week 18 in TG: Week 18, LOCF on ITT population; for Percentage change from baseline to Week 18 in inflammatory marker CRP: Week 18, observed data; for Lsmean of percentage change from baseline to Week 18 in ApoA-I / Lsmean of percentage change from baseline to Week 18 in ApoB / Lsmean of percentage change from baseline to Week 18 in ApoB/ApoA-I ratio / Lsmean of percentage change from baseline to Week 18 in HDL-C / Lsmean of percentage change from baseline to Week 18 in LDL-C / Lsmean of percentage change from baseline to Week 18 in LDL-C/HDL-C ratio / Lsmean of percentage change from baseline to Week 18 in Non-HDL-C/HDL-C ratio / Lsmean of percentage change from baseline to Week 18 in TC / Lsmean of percentage change from baseline to Week 18 in TC/HDL-C ratio / Lsmean of percentage change from baseline to Week 18 in TG: oral once daily, forced titration 20/40/80 mg
Method: We have conducted a Phase III trial designed to assess the efficacy of ZD4522 in subjects with HeFH. The dose-response of ZD4522 was compared with atorvastatin using the percentage change from baseline in LDL-C levels as the primary end-point. Doses of ZD4522 up to 80 mg per day were use& Atorvastatin was chosen as the comparator statin in this trial because it has the best LDL-C lowering activity of the currently marketed statins.
The primary objective was to compare the efficacy of ZD4522 (titrated to 80 mg) with that of atorvastatin (titrated to 80 mg) in reducing low-density lipoprotein cholesterol (LDL-C) levels in subjects with heterozygous familial hypercholesterolemia (HeFH) after 18 weeks of treatment.
Population: A total of 265 (200 in the ZD4522 group, 65 in the atorvastatin group) randomised to and evaluable subjects with documented heterozygous F, derived from approximately 1240 recruited subjects, were required to enable 80% power in detecting a 6% difference between groups in the percentage change from baseline in LDL-C levels.
Key exclusion criteria: Various concomitant illnesses, including active liver disease or hepatic dysfunction (defined by an alanine aminotransferase [ALT], aspartate amninotransferase [AST] or bilirubin concentration […] of normal [ULN]), active arterial disease, history of malignancy (unless basal or squamous cell skin carcinoma), uncontrolled hypertension, and uncontrolled hypothyroidism; serum creatine kinase (CK) concentration >3×ULN; usage of concomitant medications known to affect the lipid profile or present a potential safety concern (for example, through drug interaction).
Efficacy: Fasting LDL-C, total cholesterol (TC), high-density lipoprotein cholesterol (HDL-C), and TG were assessed at, Weeks 0, 2, 6, 12, and 18; fasting apolipoprotein (ApoB) and apolipoprotein A-I (ApoA-I) were assessed at Weeks 0 and 18; C-reactive protein (CRP) was assessed at Weeks 0 and 18. Dietary compliance throughout the trial was assessed and evaluated.
The primary end-point was the percentage change from baseline to Week 18 in LDL-C levels, and was analysed using analysis of variance (ANOVA) on last observations carried forward (LOCF) from an intention-to-treat (ITT) population; the initial ANOVA model included terms for treatment, center, and center-by-treatment interaction. Additional analyses using observed data from ITT and per-protocol (PP) populations were used to confirm the robustness of the Main ITT analysis.
Percentage changes from baseline in the other lipids and lipoproteins were secondary end-points of the trial and were analysed using ANOVA. The other secondary end-points of the percentage of subjects in the ITT population who achieved targets for LDL-C levels specified by the National Cholesterol Education Program (NCEP) or the European Atherosclerosis Society (EAS), and the percentage change from baseline in the inflammatory marker CRP, were summarised only.

[2] = system: subjects with heterozygous familial hypercholesterolemia; assay: 24-week randomised double-blind Phase III trial of ZD4522 versus atorvastatin: safety assessments; settings: HeFH subjects, 20/40/80 mg, safety population
Method: A further secondary objective was to determine the safety of ZD4522.
Design: A 24-week, randomised, double-blind, 2-group, parallel-group, forced-titration, multicentre, multinational trial. After a 6-week dietary lead-in period, subjects were randomised to treatment with either ZD4522 20 mg, or atorvastatin 20 mg for 6 weeks. Following this initial treatment period, all subjects with an LDL-C level >1.3 mmol/L (50 mg/dL) were force-titrated at 6-week intervals as follows; from ZD4522 20 to 40 to 80 mg, and from atorvastatin 20 to 40 to 80 mg. The maximum titrated dose of either treatment after 18 weeks was 80 mg.
Dosage: Subjects took oral doses of trial treatment once daily, approximately 3 hours after the evening meal. Doses of treatments were as follows; ZD4522 20, 40, and 80 mg, atorvastatin 20, 40, and 80 mg. Subjects had their doses titrated up at 6-week intervals in a sequential manner, if appropriate.
Safety: Standard safety assessments included adverse event pot clinical laboratory data (hepatic biochemistry, CK, renal biochemistry, haematology, urinalysis), vital signs, electrocardiograms (ECGs) and physical examination.

Row | SMILES | mean % reduction in LDL-C ([1]; 18 weeks, LOCF) [%] | Percentage subjects reaching EAS target for LDL-C levels at Week 18, high-risk [1] [%] | Percentage subjects reaching EAS target for LDL-C levels at Week 18, overall [1] [%] | Percentage subjects reaching NCEP target for LDL-C levels at Week 18, high-risk [1] [%] | Percentage subjects reaching NCEP target for LDL-C levels at Week 18, overall [1] [%] | Percentage change from baseline to Week 18 in inflammatory marker CRP [1] [%] | Lsmean of percentage change from baseline to Week 18 in ApoA-I [1] | Lsmean of percentage change from baseline to Week 18 in ApoB [1] | Lsmean of percentage change from baseline to Week 18 in ApoB/ApoA-I ratio [1] | Lsmean of percentage change from baseline to Week 18 in HDL-C [1] | Lsmean of percentage change from baseline to Week 18 in LDL-C [1] | Lsmean of percentage change from baseline to Week 18 in LDL-C/HDL-C ratio [1] | Lsmean of percentage change from baseline to Week 18 in Non-HDL-C/HDL-C ratio [1] | Lsmean of percentage change from baseline to Week 18 in TC [1] | Lsmean of percentage change from baseline to Week 18 in TC/HDL-C ratio [1] | Lsmean of percentage change from baseline to Week 18 in TG [1] | further results
1 | CC(C)c1nc(N(C)S(C)(=O)=O)nc(-c2ccc(F)cc2)c1/C=C/[C@@H](O)C[C@@H](O)CC(=O)O [ZD4522, (E)-7-[4-(4-fluorophenyl)-6-isopropyl-2-[methyl(methylsulfonyl)amino]pyrimidin-5-yl](3R,5S)-3,5-dihydroxyhept-6-enoic acid] | 57.88 | 47.5 | 47.4 | 23.9 | 60.5 | 25.21 | 5.86^b % | −50.21^b % | −52.03^b % | 12.36^b % | −57.88^b % | −61.69^b % | −59.40^b % | −46.35^b % | −51.44^b % | −27.82^ns % | difference between treatments in % reduction in LDL-C (versus atorvastatin 20/40/80 mg) ([1]; 18 weeks, LOCF, ZD4522 20/40/80 mg versus atorvastatin 20/40/80 mg): > 6%
2 | CC(C)c1c(C(=O)Nc2ccccc2)c(-c2ccccc2)c(-c2ccc(F)cc2)n1CC[C@@H](O)C[C@@H](O)CC(=O)O [Atorvastatin, atorvastatin] | 50.41 | 24.2 | 24.1 | 3.2 | 46.0 | 31.28 | −2.33^b % | −44.44^b % | −42.46^b % | 2.91^b % | −50.41^b % | −51.16^b % | −49.86^b % | −42.13^b % | −43.17^b % | −31.60^ns % | clinically significant elevations (≧10×ULN) in CK [2]: no clinically significant elevations; incidence of clinically significant elevations in ALT (≧3×ULN) [2]: 1.1%; number of patients with clinically significant elevations in ALT (≧3×ULN) [2]: 2 patients; overall incidence of AEs (including treatment-related AEs, AEs leading to withdrawals and SAEs) [2]: 65.8%
